# Laboratory results reported in patent US20220235011A1, “PHTHALAZINONE COMPOUNDS AND USE THEREOF” (ST PHARM CO., LTD., priority 2019, published 2022).
# Target: T1, Sirt6 (Homo sapiens, UniProt Q8N6T7)
# T1 construct: purchased CycLex CY-1156V2
# Assay: Measurement of Sirt6 Activity (CycLex Sirt6 Deacetylase Fluorometric Assay Kit)
# Assay type: biochemical
# Conditions: compound at 10 μM; fluorescence relative to the group without compound treatment (positive control group)
# Outline: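 Recombinant Sirt6 with fluoro-labelled acetyl-lysine peptide, NAD and lysylendopeptidase developer, compound added from 10× stock in PBS; 1 h at room temperature. Fluorescence read at ex 490/em 530 nm; activation expressed as fluorescence ratio relative to enzyme without compound.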
# T1 sequence (Q8N6T7 whole entry): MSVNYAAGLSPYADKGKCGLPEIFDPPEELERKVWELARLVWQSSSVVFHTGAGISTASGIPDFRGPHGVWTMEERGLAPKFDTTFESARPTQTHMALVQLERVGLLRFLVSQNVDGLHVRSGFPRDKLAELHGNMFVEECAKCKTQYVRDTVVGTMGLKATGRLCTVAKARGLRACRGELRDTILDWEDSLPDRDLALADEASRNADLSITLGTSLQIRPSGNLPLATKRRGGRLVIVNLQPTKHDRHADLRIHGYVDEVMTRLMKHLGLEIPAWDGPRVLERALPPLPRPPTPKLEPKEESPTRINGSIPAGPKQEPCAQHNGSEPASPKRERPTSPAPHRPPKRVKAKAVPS
row,Molecule,"Sirt6 Activity (% activity, 10 μM)"
1,"O=C(O)C1(c2cccc(-c3nn(-c4ccc(Cl)cc4)c(=O)c4ccccc34)c2)CC1 [Example 195, 1-(3-(3-(4-Chlorophenyl)-4-oxo-3,4-dihydrophthalazin-1-yl)phenyl)cyclopropan-1-carboxylic Acid]",287.30 % activity
2,"O=c1c2ccccc2c(N2CCCCC(O)C2)nn1-c1ccc(Cl)cc1 (stereo not drawn) [Example 196, 2-(4-Chlorophenyl)-4-(3-hydroxyazepan-1-yl)phthalazin-1(2H)-one]",135.10 % activity
3,"CC(C)(C(N)=O)c1cccc(-c2nn(-c3ccc(Cl)cc3)c(=O)c3ccccc23)c1 [Example 197, 2-(3-(3-(4-Chlorophenyl)-4-oxo-3,4-dihydrophthalazin-1-yl)phenyl)-2-methylpropanamide]",153.60 % activity
4,"O=C(O)Cc1cccc(-c2nn(-c3ccc(F)cc3F)c(=O)c3ccccc23)c1 [Example 199, 2-(3-(3-(2,4-Difluorophenyl)-4-oxo-3,4-dihydrophthalazin-1-yl)phenyl)acetic Acid]",149.41 % activity
5,"CC(C)(C(=O)O)c1cccc(-c2nn(-c3ccc(C4CC4)cc3)c(=O)c3ccccc23)c1 [Example 206, 2-(3-(3-(4-Cyclopropylphenyl)-4-oxo-3,4-dihydrophthalazin-1-yl)phenyl)-2-methylpropanoic Acid]",182.70 % activity
6,"CC(C)(C(=O)O)C1CCCN(c2nn(-c3ccc(Cl)cc3)c(=O)c3ccccc23)C1 (stereo not drawn) [Example 209, 2-(1-(3-(4-Chlorophenyl)-4-oxo-3,4-dihydrophthalazin-1-yl)piperidin-3-yl)-2-methylpropanoic Acid]",169.10 % activity
7,"COC(=O)C1(C2CCCN(c3nn(-c4ccc(F)cc4F)c(=O)c4ccccc34)C2)CC1 (stereo not drawn) [Example 211, Methyl 1-(1-(3-(2,4-difluorophenyl)-4-oxo-3,4-dihydrophthalazin-1-yl)piperidin-3-yl)cyclopropan-1-carboxylate]",170.00 % activity
8,"Cl.O=c1c2ccccc2c(C2=CCNCC2)nn1-c1ccc(F)cc1F [Example 215, 2-(2,4-Difluorophenyl)-4-(1,2,3,6-tetrahydropyridin-4-yl)phthalazin-1(2H)-one-hydrochloride]",226.60 % activity
9,"CCN(C)S(=O)(=O)c1cccc(-c2nn(-c3ccc(F)cc3F)c(=O)c3ccccc23)c1 [Example 216, 3-(3-(2,4-Difluorophenyl)-4-oxo-3,4-dihydrophthalazin-1-yl)-N-ethyl-N-methylbenzenesulfonamide]",184.80 % activity
10,"CCS(=O)(=O)N1CC=C(c2nn(-c3ccc(F)cc3F)c(=O)c3ccccc23)CC1 [Example 218, 2-(2,4-Difluorophenyl)-4-(1-(ethylsulfonyl)-1,2,3,6-tetrahydropyridin-4-yl)phthalazin-1(2H)-one]",176.50 % activity
11,"N-(3-(4-Oxo-3-(tetrahydro-2H-pyran-4-yl)-3,4-dihydrophthalazin-1-yl)phenyl)ethanesulfonamide [Example 151]",145.64 % activity

# Now from value to molecule:
row,"Sirt6 Activity (% activity, 10 μM)",Molecule
1,225.40 % activity,"NC(=O)C1(c2cccc(-c3nn(-c4ccc(Cl)cc4)c(=O)c4ccccc34)c2)CC1 [Example 198, 1-(3-(3-(4-Chlorophenyl)-4-oxo-3,4-dihydrophthalazin-1-yl)phenyl)cyclopropan-1-carboxyamide]"
2,255.33 % activity,"CC(C)(N)c1cccc(-c2nn(-c3ccc(F)cc3F)c(=O)c3ccccc23)c1.Cl [Example 200, 4-(3-(2-Aminopropan-2-yl)phenyl)-2-(2,4-difluorophenyl)phthalazin-1(2H)-one-hydrochloride]"
3,204.58 % activity,"CC(C)(C(=O)O)c1cccc(-c2nn(-c3ccc(Cl)cc3F)c(=O)c3ccccc23)c1 [Example 201, 2-(3-(3-(4-Chloro-2-fluorophenyl)-4-oxo-3,4-dihydrophthalazin-1-yl)phenyl)-2-methylpropanoic Acid]"
4,261.73 % activity,"Cl.N[C@@H]1CCCCN(c2nn(-c3ccc(Cl)cc3F)c(=O)c3ccccc23)C1 [Example 202, (R)-4-(3-Aminoazepan-1-yl)-2-(4-chloro-2-fluorophenyl)phthalazin-1-(2H)-one-hydrochloride]"
5,109.84 % activity,"N#CC1CCCCN(c2nn(-c3ccc(Cl)cc3F)c(=O)c3ccccc23)C1 (stereo not drawn) [Example 203, 1-(3-(4-Chloro-2-fluorophenyl)-4-oxo-3,4-dihydrophthalazin-1-yl)azepane-3-carbonitrile]"
6,161.50 % activity,"CC(C)(CN)c1cccc(-c2nn(-c3ccc(F)cc3F)c(=O)c3ccccc23)c1.Cl [Example 204, 4-(3-(1-Amino-2-methylpropan-2-yl)phenyl)-2-(2,4-difluorophenyl)phthalazin-1(2H)-one-hydro Chloride]"
7,309.90 % activity,"O=C(O)C1(c2cccc(-c3nn(-c4ccc(F)cc4F)c(=O)c4ccccc34)c2)CCC1 [Example 207, 1-(3-(3-(2,4-Difluorophenyl)-4-oxo-3,4-dihydrophthalazin-1-yl)phenyl)cyclobutane-1-carboxylic Acid]"
8,117.30 % activity,"O=C(O)C1(c2cccc(-c3nn(-c4ccc(F)cc4F)c(=O)c4ccccc34)c2)CCCC1 [Example 208, 1-(3-(3-(2,4-Difluorophenyl)-4-oxo-3,4-dihydrophthalazin-1-yl)phenyl)cyclopentane-1-carboxylic Acid]"
9,233.90 % activity,"O=c1c2ccccc2c(-c2cccc(S(=O)(=O)N3CCCC3)c2)nn1-c1ccc(F)cc1F [Example 214, 2-(2,4-Difluorophenyl)-4-(3-(pyrrolidin-1-ylsulfonyl)phenyl)phthalazin-1(2H)-one]"
10,185.10 % activity,"CCN(CC)S(=O)(=O)c1cccc(-c2nn(-c3ccc(F)cc3F)c(=O)c3ccccc23)c1 [Example 217, 3-(3-(2,4-Difluorophenyl)-4-oxo-3,4-dihydrophthalazin-1-yl)-N,N-diethylbenzenesulfonamide]"
11,114.60 % activity,"CC(C)(C(=O)O)C1CN(c2nn(-c3ccc(F)cc3F)c(=O)c3ccccc23)CCN1 (stereo not drawn) [Example 219, 2-(4-(3-(2,4-Difluorophenyl)-4-oxo-3,4-dihydrophthalazin-1-yl)piperazin-2-yl)-2-methylpropanoic Acid]"
12,125.80 % activity,"CN1CCN(c2nn(-c3ccc(F)cc3F)c(=O)c3ccccc23)CC1C(C)(C)C(=O)O (stereo not drawn) [Example 220, 2-(4-(3-(2,4-Difluorophenyl)-4-oxo-3,4-dihydrophthalazin-1-yl)-1-methylpiperazin-2-yl)-2-methylpropanoic Acid]"
13,125.50 % activity,"CC(C)(C(=O)O)C1CN(c2nn(-c3ccc(F)cc3F)c(=O)c3ccccc23)CCO1 (stereo not drawn) [Example 221, 2-(4-(3-(2,4-Difluorophenyl)-4-oxo-3,4-dihydrophthalazin-1-yl)morpholin-2-yl)-2-methylpropanoic Acid]"

# Same assay, conditions: compound at 10 μM; fluorescence relative to the group without compound treatment (positive control group); 10 µM
row,"Sirt6 Activity (% activity, 10 μM)",Molecule
1,105.70 % activity,"CC(C)(C(=O)O)C1CCCN(c2nn(-c3ccc(F)cc3F)c(=O)c3ccccc23)C1 (stereo not drawn) [Example 205, 2-(1-(3-(2,4-Difluorophenyl)-4-oxo-3,4-dihydrophthalazin-1-yl)piperidin-3-yl)-2-methylpropanoic Acid]"
2,199.00 % activity,"CC(C)(C(=O)O)C1CCCN(c2nn(-c3ccc(F)cc3F)c(=O)c3ccccc23)C1 (stereo not drawn) [Example 210-1, 2-(1-(3-(2,4-Difluorophenyl)-4-oxo-3,4-dihydrophthalazin-1-yl)piperidin-3-yl)-2-methylpropanoic Acid]"
3,100.50 % activity,"CC(C)(C(=O)O)C1CCCN(c2nn(-c3ccc(F)cc3F)c(=O)c3ccccc23)C1 (stereo not drawn) [Example 210-2, 2-(1-(3-(2,4-Difluorophenyl)-4-oxo-3,4-dihydrophthalazin-1-yl)piperidin-3-yl)-2-methylpropanoic Acid]"
4,170.10 % activity,"O=C(O)C1(C2CCCN(c3nn(-c4ccc(F)cc4F)c(=O)c4ccccc34)C2)CC1 (stereo not drawn) [Example 212, 1-(1-(3-(2,4-Difluorophenyl)-4-oxo-3,4-dihydrophthalazin-1-yl)piperidin-3-yl)cyclopropan-1-carboxylic Acid]"
5,168.10 % activity,"O=C(O)C1(C2CCCN(c3nn(-c4ccc(F)cc4F)c(=O)c4ccccc34)C2)CC1 (stereo not drawn) [Example 213-1, 1-(1-(3-(2,4-Difluorophenyl)-4-oxo-3,4-dihydrophthalazin-1-yl)piperidin-3-yl)cyclopropan-1-carboxylic Acid]"
6,102.60 % activity,"O=C(O)C1(C2CCCN(c3nn(-c4ccc(F)cc4F)c(=O)c4ccccc34)C2)CC1 (stereo not drawn) [Example 213-2, 1-(1-(3-(2,4-Difluorophenyl)-4-oxo-3,4-dihydrophthalazin-1-yl)piperidin-3-yl)cyclopropan-1-carboxylic Acid]"
